Test results from PMC10641814 (Journal of Medicinal Chemistry, 2023).

Tests used:
[1] = test system: hippocampus of rats injected with oAβ25–35; assay: Western blot of hippocampal AD biomarkers in oAβ25–35-injected rats; format: in vivo, rat; details: oAβ25–35 icv
Protocol: As previously detailed,[37],[64] to induce the acute model of AD (oAβ25–35 model), rats were divided into three groups. […] The animals were anesthetized with an intraperitoneal (ip) injection of a mixture of ketamine and xylazine (80 and 10 mg/kg b.w., respectively). Scrambled peptide and oAβ25–35 were injected directly into the lateral ventricles at a rate of 2 μL/min using a David-Kopf stereotaxic apparatus (coordinates of injection: AP −1 mm, L ±1.5 mm, DV −3.5 mm).
On day 14, animals were subjected to a behavioral memory test (T-maze) and sacrificed on day 15 by decapitation.
2—A preventive approach: This treatment was started at the same time as the induction of amyloid toxicity and consisted of implanting ip, and during the same anesthetic procedure necessary for the icv injection of oAβ25–35, an osmotic pump (Alzet-EML2, Charles-River, France) which continuously delivered the molecules for 1 week at the dose of 3 mg/kg/day. On day 7, animals were submitted to a behavioral memory test (T-maze) and sacrificed on day 8 by decapitation.
At the time of sacrifice, all hippocampi were dissected out, weighed, and rapidly frozen in liquid nitrogen for Western blot (WB) analysis.
Western blot analyses were performed on the whole hippocampus as previously described.[37] All antibodies used are detailed in Table S3. Briefly, after sacrifice, hippocampi were microdissected, weighed, immediately frozen in liquid nitrogen, and stored at −20 °C. Tissues were sonicated (VibraCell; Sonics & Materials, USA) in a lysis buffer[37] and centrifuged (4 °C). Supernatants were collected, and the protein concentration was measured using a bicinchoninic Acid (BCA) assay (ThermoFisher Scientific, France). […] The membranes were incubated overnight (4 °C) with the primary antibody, washed, and then incubated for 2 h with the appropriate horseradish peroxidase-conjugated secondary antibody. […] The intensity of the immunoreactive signals was quantified using Image-J software (NIH, Bethesda, […], USA). β-Tubulin (β-Tub) was used as a loading control for all experiments.

human 5-HT7b = molecular target: T1, human 5-HT7b (Homo sapiens, UniProt P34969); assay: 5-HT7R binding ([3H]-5-CT), HEK293; details: read-out: serotonin 5-HT7 % inhibition at 1 microM
T1 construct: expressed in transfected cells
Protocol: 3. Selectivity screen of PZ-1922
For membrane preparation,
EDTA and 1 mM dithiothreitol.
The composition of the assay buffers was
reader (PerkinElmer, USA).
(§1) The results were expressed as the %
(§2) www.eurofinsdiscovery.com.

h5-HT3R = molecular target: T2, h5-HT3R (Homo sapiens, UniProt P46098); assay: 5-HT3R radioligand binding ([3H]-BRL 43694) in CHO cells
T2 construct: expressed in transfected cells; host or cells: CHO
T2 sequence (P46098 24-478): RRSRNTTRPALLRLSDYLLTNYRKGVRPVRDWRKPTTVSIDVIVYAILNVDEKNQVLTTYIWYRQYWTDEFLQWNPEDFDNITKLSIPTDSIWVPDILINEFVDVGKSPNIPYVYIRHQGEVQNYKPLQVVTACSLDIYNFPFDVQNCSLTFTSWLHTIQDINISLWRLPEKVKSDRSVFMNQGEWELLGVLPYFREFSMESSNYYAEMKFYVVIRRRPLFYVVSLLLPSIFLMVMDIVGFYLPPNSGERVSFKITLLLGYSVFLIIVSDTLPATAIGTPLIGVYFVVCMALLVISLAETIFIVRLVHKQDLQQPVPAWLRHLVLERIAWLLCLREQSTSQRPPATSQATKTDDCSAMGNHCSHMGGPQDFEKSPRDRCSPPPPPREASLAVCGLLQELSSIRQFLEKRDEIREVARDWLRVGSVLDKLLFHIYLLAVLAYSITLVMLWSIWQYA

dopaminergic D3R = dopaminergic D3R (Homo sapiens, UniProt P35462); assay: D3R binding ([3H]-methylspiperone), Eurofins; details: read-out: dopamine D3 % inhibition at 1 microM
Source text: as §1, §2

5-HT2BR = 5-HT2BR (Homo sapiens, UniProt P41595); assay: 5-HT2BR binding ([3H]-mesulergine), Eurofins
Source text: as §1, §2

5-HT3R = molecular target: T3, 5-HT3R (Cavia porcellus, UniProt O70212); assay: Ex vivo guinea pig ileum contractility, serotonin-induced; details: 15 min incubation
T3 construct: from tissue; host or cells: guinea pig ileum
T3 sequence (O70212 20-490): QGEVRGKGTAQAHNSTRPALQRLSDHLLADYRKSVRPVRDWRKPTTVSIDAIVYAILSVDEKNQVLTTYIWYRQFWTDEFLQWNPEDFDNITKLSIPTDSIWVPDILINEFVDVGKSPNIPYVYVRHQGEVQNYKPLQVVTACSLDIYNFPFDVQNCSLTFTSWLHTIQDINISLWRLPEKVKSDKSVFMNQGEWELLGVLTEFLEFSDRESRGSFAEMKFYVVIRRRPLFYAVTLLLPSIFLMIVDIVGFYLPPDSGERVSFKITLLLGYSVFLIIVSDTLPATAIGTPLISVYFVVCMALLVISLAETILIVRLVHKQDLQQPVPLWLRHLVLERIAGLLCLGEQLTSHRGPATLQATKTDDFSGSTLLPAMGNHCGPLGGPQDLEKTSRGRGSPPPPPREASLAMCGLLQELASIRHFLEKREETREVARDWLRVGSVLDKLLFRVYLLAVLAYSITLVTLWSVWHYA

α2AR = molecular target: T4, α2AR (Homo sapiens, UniProt P08913); assay: Adrenergic α2AR binding ([3H]-RX821002), Eurofins; details: read-out: adrenergic alfa2A % inhibition at 1 microM
T4 sequence (P08913 1-465): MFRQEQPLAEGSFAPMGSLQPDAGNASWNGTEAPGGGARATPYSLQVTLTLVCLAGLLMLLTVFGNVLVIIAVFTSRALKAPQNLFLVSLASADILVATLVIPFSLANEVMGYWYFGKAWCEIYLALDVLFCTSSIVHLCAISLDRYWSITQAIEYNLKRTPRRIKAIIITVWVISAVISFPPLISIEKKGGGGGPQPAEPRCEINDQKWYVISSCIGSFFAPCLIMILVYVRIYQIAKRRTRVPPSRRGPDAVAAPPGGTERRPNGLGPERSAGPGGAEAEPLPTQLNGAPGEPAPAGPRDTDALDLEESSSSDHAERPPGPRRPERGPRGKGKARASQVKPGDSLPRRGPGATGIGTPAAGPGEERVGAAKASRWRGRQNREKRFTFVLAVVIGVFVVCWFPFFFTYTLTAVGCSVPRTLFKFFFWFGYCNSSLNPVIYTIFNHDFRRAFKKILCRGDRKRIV
Source text: as §1, §2

[2] = 1.5 mg/kg ip twice a day for 7 days
[3] = 3 mg/kg/day osmotic pump 1 week
[4] = curative and preventive approach

Sequence of 5-HT2BR (P41595 whole entry): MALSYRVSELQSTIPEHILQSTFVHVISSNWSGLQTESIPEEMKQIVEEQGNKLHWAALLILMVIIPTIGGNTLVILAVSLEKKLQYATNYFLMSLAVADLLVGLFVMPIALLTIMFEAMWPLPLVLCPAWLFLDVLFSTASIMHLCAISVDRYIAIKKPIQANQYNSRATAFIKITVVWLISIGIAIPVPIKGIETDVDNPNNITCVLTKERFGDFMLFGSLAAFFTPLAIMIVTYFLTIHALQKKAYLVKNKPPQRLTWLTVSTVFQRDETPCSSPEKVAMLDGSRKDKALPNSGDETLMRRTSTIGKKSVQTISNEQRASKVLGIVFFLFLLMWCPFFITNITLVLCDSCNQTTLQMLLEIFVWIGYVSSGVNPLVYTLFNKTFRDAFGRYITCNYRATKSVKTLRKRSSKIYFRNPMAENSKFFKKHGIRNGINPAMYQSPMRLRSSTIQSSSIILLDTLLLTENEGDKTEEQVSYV
T1 sequence (P34969 1-432 limits assumed): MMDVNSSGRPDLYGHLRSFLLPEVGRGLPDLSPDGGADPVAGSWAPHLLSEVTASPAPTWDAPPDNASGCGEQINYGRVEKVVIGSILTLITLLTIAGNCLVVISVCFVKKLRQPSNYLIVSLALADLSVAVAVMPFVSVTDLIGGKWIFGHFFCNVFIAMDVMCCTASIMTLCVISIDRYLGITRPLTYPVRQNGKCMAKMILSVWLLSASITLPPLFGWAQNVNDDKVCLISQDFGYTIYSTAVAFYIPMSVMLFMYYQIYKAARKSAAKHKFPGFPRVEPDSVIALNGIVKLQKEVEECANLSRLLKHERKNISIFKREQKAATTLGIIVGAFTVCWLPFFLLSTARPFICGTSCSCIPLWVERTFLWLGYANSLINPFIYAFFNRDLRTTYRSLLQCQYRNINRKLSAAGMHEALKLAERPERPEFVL
Sequence of dopaminergic D3R (P35462 whole entry): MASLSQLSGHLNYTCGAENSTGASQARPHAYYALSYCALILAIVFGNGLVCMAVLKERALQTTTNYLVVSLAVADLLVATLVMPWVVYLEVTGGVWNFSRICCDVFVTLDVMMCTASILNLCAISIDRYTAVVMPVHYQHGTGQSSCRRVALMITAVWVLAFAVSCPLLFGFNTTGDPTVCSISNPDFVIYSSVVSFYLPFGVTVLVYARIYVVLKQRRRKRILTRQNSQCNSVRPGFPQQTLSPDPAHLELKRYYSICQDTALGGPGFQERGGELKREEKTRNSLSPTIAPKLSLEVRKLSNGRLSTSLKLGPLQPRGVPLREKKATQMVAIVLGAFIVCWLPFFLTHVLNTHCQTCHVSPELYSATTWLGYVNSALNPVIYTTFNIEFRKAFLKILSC

Structure (SMILES): Cl.Clc1cccc(Cn2ccc3c(N4CCNCC4)nc4ccccc4c32)c1 [PZ-1922, 1-(3-Chlorobenzyl)-4-(piperazin-1-yl)-1H-pyrrolo[3,2-c]quinoline Hydrochloride]
- hippocampal Caspase-3 and Pro-caspase-3 expression, curative strategy [1, 2]: decreased expression of Caspase-3 and Pro-caspase-3
- hippocampal PSD-95 and SYN levels, curative treatment [1, 2]: reversed PSD-95 and SYN levels
- hippocampal Caspase-3 and Pro-caspase-3 expression, preventive treatment [1, 3]: prevented increased expression of Caspase-3 and Pro-caspase-3
- hippocampal PSD-95 and SYN levels, preventive treatment [1, 3]: reversed PSD-95 and SYN levels
- hippocampal GFAP increase [1, 4]: Neither PZ-1922 nor intepirdine impacted the GFAP increase
- hippocampal Iba1 level [1, 4]: decreased the Iba1 level regardless of the applied approach
- inhibition at 1 µM (human 5-HT7b): 2%
- Ki (h5-HT3R; 0.5 nM [3H]-BRL 43694, CHO cells expressing h5-HT3R, two independent experiments): 0.45 nM
- inhibition at 1 µM (h5-HT3R; read-out: inhibition of 5-HT3R binding in selectivity screen): > 50%
- inhibition at 1 µM (dopaminergic D3R): 31%
- effect on 5-HT2BR (cardiac safety, valvulopathy) (5-HT2BR; binding, 1 μM): lack of effect
- inhibition at 1 µM (5-HT2BR; read-out: serotonin 5-HT2B % inhibition at 1 microM): 17%
- pD2' antagonism at 5-HT3R (5-HT3R): 7.32
- pD2' antagonism at 5-HT3R (5-HT3R; listed as 16 (PZ1922), 15 min): 7,32
- inhibition at 1 µM (α2AR): 22%
